Experimental data: patent US20250204555A1, “FEED AND METHODS FOR CONTROLLING INTESTINAL TRACT PARASITIC WORM INFECTIONS IN MAMMALS” (In the Bowl Animal Health, priority 2022, published 2025)

How the values were obtained:
Assay type in all cases: in vivo
[1] = system: Toxocara canis; assay: Efficacy of monepantel per os to dogs against Toxocara canis (fecal egg counts); details: oral liquid formulation, 0.125, 0.25 or 0.5 mg/kg daily Days 0-52, ~250 T. canis eggs on Day 0, all treatment groups, expected by the end of the study period
Description: Efficacy of Monepantel Administered per os, i.e. by Mouth, to Dogs for the Treatment and Control of Toxocara canis.
Methods: A pool of dogs are to be preliminarily examined to ensure suitability for the example. Dogs must be within normal weight ranges for breed, in good health with no known history of serious disease and neither pregnant nor lactating. On Day-6, a fecal examination may be performed to confirm the absence of pre-existing infection by any nematode species. Dogs exposed to an anthelmintic within 30 days prior to Day-7 are to be excluded.
16 eligible dogs are to be weighed on Day-1 and randomly assigned to 1 of 4 groups by weight (1 control group and 3 treatment groups).
Dogs are to be housed indoors to help prevent naturally occurring parasitic worm infections. Dogs may be pair housed, if compatible, or individually housed until allocation to treatment groups on Day 0. Thereafter, the dogs are to be housed individually. Dogs are to be fed a standard commercially available dog food at the recommended rates and should be allowed access to potable water ad libitum.
Each dog in a treatment group (test groups 2-4) is to receive by mouth a liquid formulation of monepantel. The dosage is to be administered to the dogs on each of days 0-52 according to test groups, see TABLE 4.
Dogs in the control group are not to receive any anthelmintics or any other worm control treatment. […]

[2] = system: Ancylostoma caninum; assay: Efficacy of monepantel per os to dogs against Ancylostoma caninum (fecal egg counts); details: oral liquid formulation, 0.25 or 0.5 mg/kg daily Days 0-22, ~300 A. caninum larvae on Day 0, expected within approximately 2 weeks
Description: Efficacy of Monepantel Administered per os, i.e. by Mouth, to Dogs for the Treatment and Control of Ancylostoma caninum. Methods: A pool of 12 dogs are to be preliminarily examined to ensure suitability for the example. Dogs must be within normal weight ranges for breed, in good health with no known history of serious disease and neither pregnant nor lactating. Between Day-7 and Day-3, a fecal examination may be performed to confirm the absence of pre-existing infection by any nematode species. Dogs exposed to an anthelmintic within 30 days prior to Day-7 are to be excluded. Dogs are to be weighed on Day-2 and randomly assigned to 1 of 3 groups by weight (1 control group and 2 treatment groups). Dogs may be pair housed, if compatible, or individually housed until allocation to treatment groups on Day 0. Thereafter, the dogs are to be housed individually. Dogs are to be fed a standard commercially available dog food at the recommended rates and should be allowed access to potable water ad libitum. Each dog in a treatment group (test groups 2-3) is to receive by mouth a liquid formulation of monepantel. The dosage is to be administered to the dogs on each of days 0-22 according to test groups, see TABLE 3. [table] Dogs in the control group are not to receive any anthelmintics or any other worm control treatment. Dogs are to be fasted overnight. […]

[3] = system: Toxocara canis; assay: Efficacy of fenbendazole per os to dogs against Toxocara canis infections (fecal egg counts); details: oral liquid formulation, 0.5, 1.0 or 1.5 mg/kg daily Days 0-52 (at least treatment groups 2-4), ~250 T. canis eggs on Day 0, expected by the end of the study period
Description: Efficacy of Fenbendazole Administered per os, i.e. by Mouth, to Dogs for the Treatment and Control of Toxocara canis Infections. Methods: A pool of dogs are to be preliminarily examined to ensure suitability for the example. Dogs must be within normal weight ranges for breed, in good health with no known history of serious disease and neither pregnant nor lactating. Between Day-6 and Day-3, a fecal examination may be performed to confirm the absence of pre-existing infection by any nematode species. Dogs exposed to an anthelmintic within 30 days prior to Day-7 are to be excluded. 20 eligible dogs are to be weighed on Day-2 or Day-1 and randomly assigned to 1 of 5 groups by weight (1 control group and 4 treatment groups). Dogs are to be housed indoors to help prevent naturally occurring parasitic worm infections. Dogs may be pair housed, if compatible, or individually housed until allocation to treatment groups on Day 0. Thereafter, the dogs are to be housed individually. Dogs are to be fed a standard commercially available dog food at the recommended rates and should be allowed access to potable water ad libitum. Each dog in a treatment group (test groups 2-5) is to receive by mouth a liquid formulation of fenbendazole. The dosage is to be administered to the dogs on each of days 0-52 according to test groups, see TABLE 5. [table] […]

Structure (SMILES) | efficacy (fecal egg count reduction) [1] | Percent reduction in fecal egg counts [2] | efficacy (fecal egg count reduction) [3]
C[C@](C#N)(COc1cc(C#N)ccc1C(F)(F)F)NC(=O)c1ccc(SC(F)(F)F)cc1 [Monepantel, N-[(2S)-2-cyano-1-[5-cyano-2-(trifluoromethyl)phenoxy]propan-2-yl]-4-(trifluoromethylsulfanyl)benzamide] | 100% | 100% | –
COC(=O)Nc1nc2ccc(Sc3ccccc3)cc2[nH]1 [Fenbendazole, methyl N-(6-phenylsulfanyl-1H-benzimidazol-2-yl) carbamate] | – | – | 100%
